The record followed here is the METLIN SMRT retention time set (Domingo-Almenara et al. 2019).

The nature of this data set: gradient 5% acetonitrile 3 min, to 50% in 2 min, to 85% in 15 min, held 3 min, 100 µL/min. The following applies: column: Zorbax Extend-C18 2.1 x 50 mm; eluents: water / acetonitrile, 0.1% formic acid. The essentials: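 Over 3 months, pure standards in mixtures of ~100 molecules were run by HPLC coupled to a quadrupole time-of-flight mass spectrometer in positive and negative ionization mode. The column was a Zorbax Extend-C18 (2.1 × 50 mm, 1.8 μm) at 100 μL/min, eluted with water and acetonitrile each holding 0.1% formic acid, with 40 μL dead and 900 μL dwell volumes. Retention time was determined from adduct peaks chosen by software and checked manually.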
The molecule `Nc1nc(N2CCCC2)nc2ccccc12` yielded an RP-LC retention time of 592 s. The value for `CCn1nc(-c2ccccc2)c(-c2ccccc2)c(C(=O)NCCN(C)C)c1=O` was 648 s; that for `O=C(CNC(=O)Cc1ccccc1)NCC(=O)N1CCCc2ccccc21` was 710 s; that for `Cc1ccc2[nH]cc(CCN3CC(C(=O)N4CCN(c5ccccc5)CC4)CC3=O)c2c1` (configuration not stated) was 839 s. The value for `CCN(c1ccccc1)S(=O)(=O)c1cc2c3c(c1)CCC(=O)N3CCC2` was 910 s; that for `[C-]#[N+]/C(C(=O)Nc1ccc(C(F)(F)F)cc1)=C(\C)O` was 846 s. Molecule `Cc1nc(CCNC(=O)[C@H]2CCCN2C(=O)c2ccccc2Cl)cs1` showed an RP-LC retention time of 659 s. The value for `Cc1sc(C)c(S(=O)(=O)Nc2ccccc2Cl)c1-c1cc(C(F)(F)F)on1` was 1140 s; that for `Cc1cc(C)cc(C(=O)N2CCN(c3nc(C)cc(N4CCOCC4)n3)CC2)c1` was 653 s; that for `CCOc1ccc(-c2n[nH]c3c2C(c2ccc(O)c(OC)c2)NC3=O)cc1` (configuration not stated) was 637 s. The value for `CCCNC(=O)CSc1cn(CC(=O)N2CC(C)OC(C)C2)c2ccccc12` (configuration not stated) was 745 s. The value for `CCc1nc2cc(-c3noc(-c4ccc(OC)cc4C)n3)ccc2o1` was 1270 s; that for `COc1ccc(NS(=O)(=O)c2c(C)c(-c3nnc(C4CCC4)o3)n(C)c2C)c(C)c1` was 929 s. The molecule `CC(=O)NCC(O)c1ccc([N+](=O)[O-])cc1` (configuration not stated) returned an RP-LC retention time of 661 s. For `Cc1ccc(NC(=O)Cn2nc(N3CCOCC3)c3ccccc3c2=O)cc1F`, the RP-LC retention time turned out to be 836 s. The value for `Cc1noc(C)c1CN1CCCC(C)(c2nc(-c3ccccc3)no2)C1` (configuration not stated) was 623 s; that for `CCN1C(=O)C2(CCN(S(=O)(=O)c3ccc(C)c(Cl)c3)CC2)c2ccccc21` was 1170 s. The value for `Cc1nc2ccn(Cc3ccco3)c(=O)c2cc1C(=O)NCCc1c[nH]c2ccccc12` was 768 s. Molecule `O=C(c1nc(-c2ccc(Cl)cc2)n2c1CCCCC2)N1CCN(c2ncccn2)CC1` returned an RP-LC retention time of 767 s. The value for `CC1CCN(C(=O)C2CCN(c3cncnc3N(C)C)CC2)CC1` was 624 s; that for `CCc1nc2c(sc3nc(-c4ccccc4)ccc32)c(=O)n1CC(=O)N1CCc2ccccc2C1` was 1170 s. Take `Cn1nc(CNC(=O)c2n[nH]c(=O)c3ccccc23)c2c1CCN(S(C)(=O)=O)C2`: the RP-LC retention time is 609 s. The value for `O=C(Cc1ccccc1Br)N1CCN(c2cc(-c3ccccc3)[nH]n2)CC1` was 853 s; that for `COC(=O)C[C@@](O)(CCC(C)(C)O)C(=O)O[C@@H]1C(OC)=C[C@]23CCCN2CCc2cc4c(cc2[C@@H]13)OCO4` was 612 s; that for `Cc1ccc(CNC(=O)c2ccc(CN3CCN(C(C)C)C(=O)C3=O)cc2)cc1C` was 763 s. In turn, `CC1=C(c2ccc(C)c(C)c2)S(=O)(=O)N=C1N1CCC(NC(=O)C2CCC2)CC1` had an RP-LC retention time of 853 s. Regarding `COC(=O)C1=CN(c2ccc(Cl)cc2)c2cc(F)ccc2S1(=O)=O`, the RP-LC retention time was determined as 919 s. The value for `CN1C(=O)c2cccn2CC1CNS(=O)(=O)Cc1ccccc1` (configuration not stated) was 678 s; that for `COCCC(=O)Nc1ccc2c(c1)Sc1ncccc1C(=O)N2C` was 612 s. The molecule `COc1ccc(Cl)c2c(=O)c3c([nH]c12)CCN(CC(=O)Nc1cc(F)ccc1F)C3` showed an RP-LC retention time of 625 s. The value for `CC(=O)c1cccc(NC(=O)Cn2cc(-c3ccccc3)c3ncn(C4CC4)c(=O)c32)c1` was 877 s; that for `COc1ccc(Cl)cc1C(=O)N1CCN(c2ccc(-c3nc(C)cs3)cn2)CC1` was 909 s; that for `CC(=O)Nc1ccc(CCc2nc3ccc(C(=O)NCC4CCCO4)cc3[nH]2)cc1` (configuration not stated) was 562 s. The value for `Cc1noc(CN2CCN(C3CCN(Cc4ccc(C(F)(F)F)cc4)C3)C2=O)n1` (configuration not stated) was 645 s; that for `COc1ccc(OC)c(Nc2c(-c3ccc(N(C)C)cc3)nc3cnccn23)c1` was 796 s. The value for `CCCNc1cc(N2CCC(CCC(=O)NCc3cc(F)ccc3F)CC2)ncn1` was 684 s. In the case of `Cc1ccc(-c2nnc(-c3nn(C)c4c3CN(S(=O)(=O)c3ccc(C(C)(C)C)cc3)CC4)o2)cc1`, the RP-LC retention time turned out to be 1210 s.

Turning to `CCOC(=O)c1c(C)[nH]c(C(=O)N2CCC(CC(=O)N3CCOCC3)CC2)c1C`, the RP-LC retention time was 675 s. The value for `CC1=C(c2ccccc2)S(=O)(=O)N=C1N1CCCN(C(=O)c2ccccc2Cl)CC1` was 811 s; that for `COc1ccc(OC)c(NC(=O)CN2C(=O)CC(c3ccccc3)=Nc3ccccc32)c1` was 982 s; that for `CSc1ccccc1NC(=O)c1ccc(COc2ccc(C)cc2)o1` was 1120 s. The value for `O=C(Nc1ccc(Cl)cc1)C1CCCN(S(=O)(=O)Cc2ccccc2)C1` (configuration not stated) was 976 s; that for `CCOc1ccccc1NC(=O)C1CCN(S(=O)(=O)c2ccc3c(c2)NC(=O)C(CC)O3)CC1` (configuration not stated) was 953 s; that for `Cc1ccc2nc(-c3ccncc3)cc(C(=O)Nc3nc(-c4ccccc4)c(C)s3)c2c1` was 990 s. The value for `Cc1cc2c(cc1S(=O)(=O)N1CCCC1C(=O)Nc1ccc(C(C)C)cc1)OC(C)C(=O)N2` (configuration not stated) was 916 s; that for `Cc1ccc(C(C)NC(=O)C2CCCN(c3cnc4nccnc4c3)C2)c(C)c1` (configuration not stated) was 809 s; that for `O=C(NCc1ccc(F)cc1)C1CCN(S(=O)(=O)c2cc(-c3noc(C4CC4)n3)cs2)CC1` was 958 s.

In the case of `CCCNC(=O)C1CCCN(c2nc3ncn(CC(=O)Nc4c(C)cccc4CC)c(=O)c3s2)C1` (configuration not stated), the RP-LC retention time came to 727 s. The value for `Cc1nc(-c2csc(S(=O)(=O)N3CCCC(C(=O)Nc4cccc(Cl)c4)C3)c2)no1` (configuration not stated) was 1040 s; that for `CCOc1ccc(-c2nc(CN3CCN(C(=O)NC4CCCC4)CC3)c(C)o2)cc1` was 703 s; that for `Cn1c(=O)c2cc(C(=O)NCc3ccc(Cl)cc3)sc2n(C)c1=O` was 800 s. The value for `CCn1c(=O)n(CC(=O)NC(C)C)c(=O)c2cnc(-c3ccccc3)nc21` was 863 s; that for `COc1ccccc1NC(=O)N1CCCN(Cc2nc3cc(Cl)ccc3o2)CC1` was 687 s; that for `Cc1ccc(Nc2ccc(NC(=O)C3CCCC3)cc2)nn1` was 566 s.

`Cc1cc(Cl)ccc1NC(=O)N1CCC(c2nc3ccncc3n2C(C)C)C1` (configuration not stated) had an RP-LC retention time of 648 s. The molecule `Cc1[nH]c(C(=O)Nc2cccc(Cl)c2)c(C)c1S(=O)(=O)N1CCCC1` came in with an RP-LC retention time of 943 s. The value for `COc1ccc(NC(=O)Cn2nc3c4ccccc4ncn3c2=O)cc1Cl` was 674 s; that for `COc1ccc(-c2cc3nn(CC(=O)Nc4ccc(C)cc4F)c(=O)n3c(C)n2)cc1` was 963 s. The value for `COc1cc(-c2c(NC(=O)c3ccco3)sc3ccccc3c2=O)cc(OC)c1OC` was 828 s; that for `COc1ccc(S(=O)(=O)N2CCCC2)cc1C(=O)NC1CCS(=O)(=O)C1` (configuration not stated) was 629 s. In the case of `CCn1cc(-c2ccc(Cl)cc2)cc1C(=O)N1CCOCC1`, the RP-LC retention time was 953 s. `Cn1cc(-c2cc3n(n2)CCCN3C(=O)CCC(=O)N2CCN(c3ccccc3)CC2)c2ccccc21` came in with an RP-LC retention time of 840 s. Turning to `O=C(CCn1cnnn1)N1CCC2(CC1)CC(CC(=O)N1CCOCC1)CCO2` (configuration not stated), the RP-LC retention time came out at 585 s. Consider `CCOc1ccccc1NC(=O)N1CCC2(CC1)NC(=O)c1cc(F)ccc1N2C`, for which the RP-LC retention time turned out to be 817 s. In the case of `CCC(=O)Nc1c(C)noc1/C=C/c1ccc(S(=O)(=O)Nc2ccc(S(N)(=O)=O)cc2)s1`, the RP-LC retention time amounted to 719 s. The value for `CCCNC(=O)C1CCCN(c2cc(=O)n(C)c(=O)n2C)C1` (configuration not stated) was 597 s; that for `CCn1nccc1-c1cccc(-c2noc(-c3cc(OC)cc(OC)c3)n2)c1` was 1240 s; that for `Cc1ccc(S(=O)(=O)N2CCc3nc(-c4ccc(F)cc4)ncc3C2)cc1Cl` was 1230 s.

As for `COc1cccc(NC(=O)CN2CCC(c3nc(-c4cccs4)no3)CC2)c1`, the RP-LC retention time is 680 s. The value for `Cc1cccc(N(C)C(=O)Cc2c(C(=O)O)c(C)cn2C)c1` was 739 s. `Cn1cc(CCNS(=O)(=O)c2ccccc2Br)c2cccnc21` returned an RP-LC retention time of 741 s. The value for `COc1ccccc1N1CCN(c2nnc(-c3nnc(C)o3)c3ccccc23)CC1` was 889 s; that for `CCCNC(=O)C1CC(=O)N(c2n[nH]c3cccc(F)c23)C1` (configuration not stated) was 626 s; that for `CCS(=O)(=O)Nc1ccc2nc(N3CCN(c4cccc(C)c4C)CC3)cc(C(=O)O)c2c1` was 743 s. The value for `O=C(NCCCOc1cccc2cccnc12)c1c(F)cccc1F` was 574 s; that for `CCCNC(=O)C1CCCN(c2ccc(SCC(=O)Nc3cc(C)cc(C)c3)nn2)C1` (configuration not stated) was 721 s; that for `O=C(Cn1nc2n(c1=O)CCCC2)Nc1cccc(F)c1` was 638 s.
